Measurements published in patent publication US20220153728A1, “COMPOUNDS, COMPOSITIONS AND METHODS” (DENALI THERAPEUTICS INC., priority 2017, published 2022).

Each compound was assayed against LRRK2 G2019S (Homo sapiens, UniProt Q5S007, G2019S) (assay: LRRK2 G2019S TR-FRET kinase assay (LRRKtide substrate)). Conditions: LRRK2 G2019S enzyme 5 nM, 134 μM ATP, 60 minute reaction, 23° C.
Assay type: biochemical
Protocol: Materials: • LRRK2 G2019S enzyme • Substrate (LRRKtide) • ATP • TR-FRET dilution buffer • pLRRKtide antibody • 384-well assay plate • DMSO
Enzyme Reaction Conditions
23° C. reaction temperature
10 μL total reaction volume
Detection Reaction Conditions
1×TR-FRET dilution buffer
2 nM antibody • 23° C. reaction temperature • 10 μL total reaction volume
Compounds are prepared by initially diluting to 1 mM with DMSO. 35 μL of reference compound solution, 35 μL of test compound solution, and 35 μL HPE are successively added to the source plate (384-well assay plate, Labcyte). The plates are centrifuged at 2500 rpm for 1 minute and sealed in foil. POD is used to perform a 3.162 fold serial dilution and 100 nL of reference compound solution, test compound solution, HPE and ZPE are transferred to assay plates. The assay plate is centrifuged at 2500 rpm for 1 minute, and sealed with foil.
To perform the enzyme reaction, 5 μL of LRRKtide substrate and kinase mixture in assay buffer is added to all wells of the assay plate. The plate is centrifuged to concentrate the mixture at the bottom of the wells. The assay plate is incubated at 23° C. for 20 minutes. Following incubation, 5 μL of 2×ATP in assay buffer is added to each well, and plates are centrifuged to concentrate the mixture at the bottom of the wells. The plate is incubated at 23° C. for 60 minutes.
To perform the detection of the reaction, EDTA completely mixed in TR-FRET dilution buffer is added to antibody reagent. 10 μL of detection reagent is added to all wells of each well of the assay plate and the plate is centrifuged to concentrate the mixture at the bottom of the wells. The plate is then incubated at 23° C. for 60 minutes. Plates are read on Perkin Elmer Envision 2104 instrument in TR-FRET mode using a 340 nm excitation filter, 520 nm fluorescence emission filter, and 490 or 495 nm terbium emission filter.

LRRK2 G2019S, sequence (Q5S007 whole entry G2019S): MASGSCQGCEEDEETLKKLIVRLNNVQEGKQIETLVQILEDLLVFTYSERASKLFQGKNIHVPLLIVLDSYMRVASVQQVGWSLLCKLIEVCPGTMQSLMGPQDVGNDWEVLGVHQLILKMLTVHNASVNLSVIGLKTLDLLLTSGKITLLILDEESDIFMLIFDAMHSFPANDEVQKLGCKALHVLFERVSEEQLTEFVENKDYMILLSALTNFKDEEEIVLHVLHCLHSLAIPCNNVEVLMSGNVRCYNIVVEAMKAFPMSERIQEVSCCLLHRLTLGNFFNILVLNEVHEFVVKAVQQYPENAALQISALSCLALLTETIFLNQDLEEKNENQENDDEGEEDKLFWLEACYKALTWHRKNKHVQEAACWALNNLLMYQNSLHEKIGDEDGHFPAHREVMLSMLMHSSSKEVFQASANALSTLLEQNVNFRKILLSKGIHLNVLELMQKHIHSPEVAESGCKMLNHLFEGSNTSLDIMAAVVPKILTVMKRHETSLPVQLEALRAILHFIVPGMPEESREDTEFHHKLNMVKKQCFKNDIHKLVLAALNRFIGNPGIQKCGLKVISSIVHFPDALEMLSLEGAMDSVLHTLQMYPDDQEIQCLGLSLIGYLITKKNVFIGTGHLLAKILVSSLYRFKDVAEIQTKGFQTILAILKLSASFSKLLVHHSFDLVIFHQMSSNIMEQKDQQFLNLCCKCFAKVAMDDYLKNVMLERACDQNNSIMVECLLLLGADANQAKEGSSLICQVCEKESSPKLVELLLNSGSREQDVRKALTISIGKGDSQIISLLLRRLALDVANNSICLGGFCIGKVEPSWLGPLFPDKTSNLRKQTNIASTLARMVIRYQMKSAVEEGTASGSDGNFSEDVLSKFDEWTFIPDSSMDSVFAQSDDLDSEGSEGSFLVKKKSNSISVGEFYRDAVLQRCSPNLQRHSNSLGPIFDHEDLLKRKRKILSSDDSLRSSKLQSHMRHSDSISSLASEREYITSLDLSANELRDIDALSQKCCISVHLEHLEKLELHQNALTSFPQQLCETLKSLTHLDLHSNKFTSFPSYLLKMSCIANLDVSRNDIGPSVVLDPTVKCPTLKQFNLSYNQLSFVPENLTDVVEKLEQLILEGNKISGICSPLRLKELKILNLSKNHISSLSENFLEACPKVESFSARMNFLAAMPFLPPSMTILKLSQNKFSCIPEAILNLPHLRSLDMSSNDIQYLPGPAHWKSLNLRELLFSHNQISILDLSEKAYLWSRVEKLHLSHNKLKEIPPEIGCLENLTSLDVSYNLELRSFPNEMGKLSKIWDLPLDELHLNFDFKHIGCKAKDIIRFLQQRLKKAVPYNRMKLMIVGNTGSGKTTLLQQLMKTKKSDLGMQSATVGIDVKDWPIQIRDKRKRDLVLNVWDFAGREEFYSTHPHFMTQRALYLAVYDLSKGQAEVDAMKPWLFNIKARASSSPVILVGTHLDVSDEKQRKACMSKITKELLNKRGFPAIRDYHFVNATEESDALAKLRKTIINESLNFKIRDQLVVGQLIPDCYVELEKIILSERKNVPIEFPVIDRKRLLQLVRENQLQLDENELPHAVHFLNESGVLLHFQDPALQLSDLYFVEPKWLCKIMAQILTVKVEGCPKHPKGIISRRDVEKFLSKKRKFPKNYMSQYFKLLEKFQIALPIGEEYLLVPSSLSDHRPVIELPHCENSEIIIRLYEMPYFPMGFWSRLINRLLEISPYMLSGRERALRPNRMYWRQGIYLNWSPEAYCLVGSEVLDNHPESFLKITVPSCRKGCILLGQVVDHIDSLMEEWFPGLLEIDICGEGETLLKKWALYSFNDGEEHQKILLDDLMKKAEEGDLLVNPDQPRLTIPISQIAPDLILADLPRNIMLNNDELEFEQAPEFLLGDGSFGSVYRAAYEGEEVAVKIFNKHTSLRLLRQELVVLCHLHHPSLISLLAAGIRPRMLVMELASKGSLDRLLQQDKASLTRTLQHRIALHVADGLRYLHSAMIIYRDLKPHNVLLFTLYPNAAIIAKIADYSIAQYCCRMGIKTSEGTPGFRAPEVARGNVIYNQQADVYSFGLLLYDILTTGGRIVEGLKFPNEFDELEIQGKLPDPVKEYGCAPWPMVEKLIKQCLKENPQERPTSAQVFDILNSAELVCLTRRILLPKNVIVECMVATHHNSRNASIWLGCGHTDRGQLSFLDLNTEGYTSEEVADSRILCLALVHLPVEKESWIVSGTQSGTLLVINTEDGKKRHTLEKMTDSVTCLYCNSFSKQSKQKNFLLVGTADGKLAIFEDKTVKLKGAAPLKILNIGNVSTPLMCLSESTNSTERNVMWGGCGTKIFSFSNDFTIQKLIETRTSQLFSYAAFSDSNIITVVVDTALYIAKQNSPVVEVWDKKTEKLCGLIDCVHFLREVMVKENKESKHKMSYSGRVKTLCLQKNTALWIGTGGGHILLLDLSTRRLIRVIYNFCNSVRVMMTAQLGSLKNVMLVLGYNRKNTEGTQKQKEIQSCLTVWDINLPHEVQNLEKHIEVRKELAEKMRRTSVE

| IC50 [nM] | SMILES |
| --- | --- |
| < 30 | CCNc1nc(Nc2cn(C3C[C@@]3(C)C#N)nc2C)ncc1Br (single isomer, unassigned) [Compound 12] |
| < 30 | Cc1nn(C2C[C@]2(C)C#N)cc1Nc1ncc(C(F)(F)F)c(NC2(C)CC2)n1 (single isomer, unassigned) [Compound 13] |
| < 30 | Cc1nn(C2C[C@@]2(C)C#N)cc1Nc1ncc(C(F)(F)F)c(NC2(C)CC2)n1 (single isomer, unassigned) [Compound 14] |
| < 30 | Cc1c(Nc2ncc(C(F)(F)F)c(NC3CC3)n2)cnn1C1C[C@]1(C)C#N (single isomer, unassigned) [Compound 15] |
| < 30 | Cc1c(Nc2ncc(C(F)(F)F)c(NC3CC3)n2)cnn1C1C[C@@]1(C)C#N (single isomer, unassigned) [Compound 16] |
| < 30 | CCNc1nc(Nc2cn(C3C[C@H]3C#N)nc2C2CC2)ncc1C(F)(F)F (single isomer, unassigned) [Compound 17] |
| < 30 | CCNc1nc(Nc2cnn(C3C[C@@H]3C#N)c2C)ncc1C(F)(F)F (single isomer, unassigned) [Compound 18] |
| < 30 | CCNc1nc(Nc2cnn(C3C[C@H]3C#N)c2C)ncc1C(F)(F)F (single isomer, unassigned) [Compound 19] |

Continued, compound first:

| SMILES | IC50 [nM] |
| --- | --- |
| CCNc1nc(Nc2cn(C3C[C@@]3(C)C#N)nc2C2CC2)ncc1C(F)(F)F (single isomer, unassigned) [Compound 1, 2-(3-cyclopropyl-4-((4-(ethylamino)-5-(trifluoromethyl)pyrimidin-2-yl)amino)-1H-pyrazol-1-yl)-1-methylcyclopropanecarbonitrile] | < 30 |
| CNc1nc(Nc2cn(C3C[C@@]3(C)C#N)nc2C2CC2)ncc1C(F)(F)F (single isomer, unassigned) [Compound 2] | < 30 |
| CNc1nc(Nc2cn(C3C[C@]3(C)C#N)nc2C2CC2)ncc1C(F)(F)F (single isomer, unassigned) [Compound 3] | < 30 |
| CCNc1nc(Nc2cn(C3C[C@]3(C)C#N)nc2C2CC2)ncc1C(F)(F)F (single isomer, unassigned) [Compound 4, 2-(3-cyclopropyl-4-((4-(ethylamino)-5-(trifluoromethyl)pyrimidin-2-yl)amino)-1H-pyrazol-1-yl)-1-methylcyclopropanecarbonitrile] | < 30 |
| CNc1nc(Nc2cn(C3C[C@]3(C)C#N)nc2C)ncc1C(F)(F)F (single isomer, unassigned) [Compound 5] | < 30 |
| CCNc1nc(Nc2cn(C3C[C@]3(C)C#N)nc2C)ncc1C(F)(F)F (single isomer, unassigned) [Compound 6] | < 30 |
| Cc1nn(C2C[C@]2(C)C#N)cc1Nc1ncc(C(F)(F)F)c(NC2CC2)n1 (single isomer, unassigned) [Compound 7] | < 30 |
| CCNc1nc(Nc2cn(C3C[C@@]3(C)C#N)nc2C)ncc1C(F)(F)F (single isomer, unassigned) [Compound 8] | < 30 |
| Cc1nn(C2C[C@@]2(C)C#N)cc1Nc1ncc(C(F)(F)F)c(NC2CC2)n1 (single isomer, unassigned) [Compound 9] | < 30 |
| CNc1nc(Nc2cn(C3C[C@@]3(C)C#N)nc2C)ncc1C(F)(F)F (single isomer, unassigned) [Compound 10] | < 30 |
| CCNc1nc(Nc2cn(C3C[C@]3(C)C#N)nc2C)ncc1Br (single isomer, unassigned) [Compound 11] | < 30 |
